Measurements as given in ChEMBL document CHEMBL3885861, “Open TG-GATES”.

Species on record: Rattus norvegicus
Test: Open TG-GATES - Regimen: Daily Repeat
Type: toxicity, organism-based, Sprague-Dawley
Parameters: regimen Daily Repeat, gender Male, age 6 weeks
Conditions: in vivo, po, route gavage; for APTT / Bas / Eos / Fbg / Hb / Ht / Lym / MCH / MCHC / MCV / Mono / Neu / PT / Plat / RBC / Ret / WBC: tissue Blood; for KIDNEY_L / KIDNEY_R / KIDNEY_TOTAL: tissue Kidney; for LIVER: tissue Liver; for A/G / ALP / ALT / AST / BUN / CRE / Ca / Cl / DBIL / GLC / IP / K / LDH / Na / PL / RALB / TBIL / TC / TG / TP / gamma-GTP: tissue Plasma
[1] = 100 mg/kg, 72 h, dose level Middle, time 3 day
[2] = 100 mg/kg, […], dose level Middle, time 7 day
[3] = 100 mg/kg, […], dose level Middle, time 14 day
[4] = 100 mg/kg, […], dose level Middle, time 28 day
[5] = 300 mg/kg, 72 h, dose level High, time 3 day
[6] = 300 mg/kg, […], dose level High, time 7 day
[7] = 300 mg/kg, […], dose level High, time 14 day
[8] = 300 mg/kg, […], dose level High, time 28 day

CCc1oc2ccccc2c1C(=O)c1cc(I)c(O)c(I)c1 [BENZIODARONE]
TERMINAL_BW [1]: 247.4 g
APTT [1]: 17.8 s
Bas [1]: 0%
Eos [1]: 0.8%
Fbg [1]: 228.6 mg/dL
Hb [1]: 13.9 g/dL
Ht [1]: 41.6%
Lym [1]: 80.4%
MCH [1]: 21.3 pg
MCHC [1]: 33.3%
MCV [1]: 63.9 fL
Mono [1]: 5.8%
Neu [1]: 12.4%
PT [1]: 11.4 s
Plat [1]: 123.9 x10_4/uL
RBC [1]: 651.4 x10_4/ul
Ret [1]: 6.4%
WBC [1]: 123 x10_2/uL
KIDNEY_L [1]: 1.1 g
KIDNEY_R [1]: 1.1 g
KIDNEY_TOTAL [1]: 2.3 g
LIVER [1]: 14.4 g
A/G [1]: 1.9
ALP [1]: 1104 IU/L
ALT [1]: 38.2 IU/L
AST [1]: 61 IU/L
BUN [1]: 17.6 mg/dL
CRE [1]: 0.5 mg/dL
Ca [1]: 10.8 mg/dL
Cl [1]: 103.4 meq/L
DBIL [1]: 0.038 mg/dL
GLC [1]: 196 mg/dL
IP [1]: 7.3 mg/dL
K [1]: 4.4 meq/L
LDH [1]: 112.6 IU/L
Na [1]: 140.6 meq/L
PL [1]: 148.4 mg/dL
RALB [1]: 3.8 g/dL
TBIL [1]: 0.3 mg/dL
TC [1]: 79 mg/dL
TG [1]: 66 mg/dL
TP [1]: 5.9 g/dL
gamma-GTP [1]: 2 IU/L
TERMINAL_BW [2]: 273.1 g
TERMINAL_BW [3]: 322 g
TERMINAL_BW [4]: 412 g
APTT [2]: 17.9 s
Bas [2]: 0%
Eos [2]: 1.2%
Fbg [2]: 241 mg/dL
Hb [2]: 14.1 g/dL
Ht [2]: 41.6%
Lym [2]: 78.6%
MCH [2]: 21.1 pg
MCHC [2]: 33.9%
MCV [2]: 62.5 fL
Mono [2]: 7.2%
Neu [2]: 13%
PT [2]: 11.7 s
Plat [2]: 139.6 x10_4/uL
RBC [2]: 666.6 x10_4/ul
Ret [2]: 3.8%
WBC [2]: 95.7 x10_2/uL
APTT [3]: 18.4 s
Bas [3]: 0%
Eos [3]: 0.8%
Fbg [3]: 229.4 mg/dL
Hb [3]: 14.3 g/dL
Ht [3]: 42.5%
Lym [3]: 85%
MCH [3]: 20.4 pg
MCHC [3]: 33.6%
MCV [3]: 60.7 fL
Mono [3]: 5.2%
Neu [3]: 9.2%
PT [3]: 11.8 s
Plat [3]: 122.8 x10_4/uL
RBC [3]: 700.6 x10_4/ul
Ret [3]: 2.5%
WBC [3]: 113.1 x10_2/uL
APTT [4]: 18.9 s
Bas [4]: 0%
Eos [4]: 1.4%
Fbg [4]: 225 mg/dL
Hb [4]: 15.2 g/dL
Ht [4]: 45.2%
Lym [4]: 81.8%
MCH [4]: 19.5 pg
MCHC [4]: 33.7%
MCV [4]: 58 fL
Mono [4]: 6%
Neu [4]: 11.2%
PT [4]: 11.8 s
Plat [4]: 114.5 x10_4/uL
RBC [4]: 778.6 x10_4/ul
Ret [4]: 3.4%
WBC [4]: 123.7 x10_2/uL
KIDNEY_L [2]: 1.2 g
KIDNEY_R [2]: 1.2 g
KIDNEY_TOTAL [2]: 2.4 g
KIDNEY_L [3]: 1.2 g
KIDNEY_R [3]: 1.3 g
KIDNEY_TOTAL [3]: 2.5 g
KIDNEY_L [4]: 1.4 g
KIDNEY_R [4]: 1.5 g
KIDNEY_TOTAL [4]: 2.9 g
LIVER [2]: 15.6 g
LIVER [3]: 16.9 g
LIVER [4]: 21.8 g
A/G [2]: 1.7
ALP [2]: 1041.8 IU/L
ALT [2]: 35 IU/L
AST [2]: 65.2 IU/L
BUN [2]: 20.6 mg/dL
CRE [2]: 0.6 mg/dL
Ca [2]: 11 mg/dL
Cl [2]: 103 meq/L
DBIL [2]: 0.03 mg/dL
GLC [2]: 184 mg/dL
IP [2]: 7.8 mg/dL
K [2]: 4.5 meq/L
LDH [2]: 119.8 IU/L
Na [2]: 140.6 meq/L
PL [2]: 153.4 mg/dL
RALB [2]: 3.8 g/dL
TBIL [2]: 0.3 mg/dL
TC [2]: 78.8 mg/dL
TG [2]: 87.2 mg/dL
TP [2]: 6.1 g/dL
gamma-GTP [2]: 1.6 IU/L
A/G [3]: 2
ALP [3]: 712.4 IU/L
ALT [3]: 34.2 IU/L
AST [3]: 61.6 IU/L
BUN [3]: 20.8 mg/dL
CRE [3]: 0.6 mg/dL
Ca [3]: 10.6 mg/dL
Cl [3]: 105.2 meq/L
DBIL [3]: 0.04 mg/dL
GLC [3]: 199 mg/dL
IP [3]: 6.9 mg/dL
K [3]: 4.4 meq/L
LDH [3]: 105 IU/L
Na [3]: 141 meq/L
PL [3]: 139.6 mg/dL
RALB [3]: 4 g/dL
TBIL [3]: 0.2 mg/dL
TC [3]: 73.8 mg/dL
TG [3]: 67.6 mg/dL
TP [3]: 6 g/dL
gamma-GTP [3]: 1.2 IU/L
A/G [4]: 1.7
ALP [4]: 685.6 IU/L
ALT [4]: 37 IU/L
AST [4]: 59.2 IU/L
BUN [4]: 22 mg/dL
CRE [4]: 0.7 mg/dL
Ca [4]: 10.7 mg/dL
Cl [4]: 103.6 meq/L
DBIL [4]: 0.012 mg/dL
GLC [4]: 195.4 mg/dL
IP [4]: 6.4 mg/dL
K [4]: 4.4 meq/L
LDH [4]: 96.6 IU/L
Na [4]: 140.6 meq/L
PL [4]: 159.6 mg/dL
RALB [4]: 4.1 g/dL
TBIL [4]: 0.3 mg/dL
TC [4]: 86.4 mg/dL
TG [4]: 78.6 mg/dL
TP [4]: 6.5 g/dL
gamma-GTP [4]: 1.2 IU/L
TERMINAL_BW [5]: 237.2 g
APTT [5]: 19.4 s
Bas [5]: 0%
Eos [5]: 1%
Fbg [5]: 220.8 mg/dL
Hb [5]: 13.6 g/dL
Ht [5]: 40.1%
Lym [5]: 70.4%
MCH [5]: 22 pg
MCHC [5]: 33.9%
MCV [5]: 64.7 fL
Mono [5]: 9%
Neu [5]: 20%
PT [5]: 11.8 s
Plat [5]: 119.8 x10_4/uL
RBC [5]: 619.2 x10_4/ul
Ret [5]: 7.3%
WBC [5]: 107.3 x10_2/uL
KIDNEY_L [5]: 1 g
KIDNEY_R [5]: 1 g
KIDNEY_TOTAL [5]: 2.1 g
LIVER [5]: 15.3 g
A/G [5]: 2
ALP [5]: 951 IU/L
ALT [5]: 42.6 IU/L
AST [5]: 69.6 IU/L
BUN [5]: 16.4 mg/dL
CRE [5]: 0.6 mg/dL
Ca [5]: 10.6 mg/dL
Cl [5]: 104.8 meq/L
DBIL [5]: 0.038 mg/dL
GLC [5]: 178.4 mg/dL
IP [5]: 7 mg/dL
K [5]: 4.3 meq/L
LDH [5]: 121.6 IU/L
Na [5]: 141.4 meq/L
PL [5]: 132.4 mg/dL
RALB [5]: 3.8 g/dL
TBIL [5]: 0.3 mg/dL
TC [5]: 74.2 mg/dL
TG [5]: 34.2 mg/dL
TP [5]: 5.7 g/dL
gamma-GTP [5]: 1.4 IU/L
TERMINAL_BW [6]: 277.5 g
TERMINAL_BW [7]: 313.1 g
TERMINAL_BW [8]: 377.5 g
APTT [6]: 18.6 s
Bas [6]: 0%
Eos [6]: 0.6%
Fbg [6]: 217 mg/dL
Hb [6]: 13.9 g/dL
Ht [6]: 40.9%
Lym [6]: 82.2%
MCH [6]: 21.5 pg
MCHC [6]: 33.9%
MCV [6]: 63.5 fL
Mono [6]: 6.8%
Neu [6]: 10.8%
PT [6]: 12 s
Plat [6]: 125.7 x10_4/uL
RBC [6]: 644 x10_4/ul
Ret [6]: 4.3%
WBC [6]: 103.8 x10_2/uL
APTT [7]: 19.3 s
Bas [7]: 0%
Eos [7]: 1%
Fbg [7]: 211.8 mg/dL
Hb [7]: 14.4 g/dL
Ht [7]: 42.6%
Lym [7]: 82.8%
MCH [7]: 21.1 pg
MCHC [7]: 33.9%
MCV [7]: 62.1 fL
Mono [7]: 6%
Neu [7]: 10.8%
PT [7]: 12 s
Plat [7]: 116.1 x10_4/uL
RBC [7]: 685.4 x10_4/ul
Ret [7]: 2.8%
WBC [7]: 121 x10_2/uL
APTT [8]: 20.8 s
Bas [8]: 0%
Eos [8]: 1.6%
Fbg [8]: 223 mg/dL
Hb [8]: 15 g/dL
Ht [8]: 44.3%
Lym [8]: 78.6%
MCH [8]: 19.6 pg
MCHC [8]: 33.9%
MCV [8]: 57.8 fL
Mono [8]: 7.4%
Neu [8]: 12.2%
PT [8]: 12.3 s
Plat [8]: 108.9 x10_4/uL
RBC [8]: 768.2 x10_4/ul
Ret [8]: 2.8%
WBC [8]: 122.3 x10_2/uL
KIDNEY_L [6]: 1.2 g
KIDNEY_R [6]: 1.2 g
KIDNEY_TOTAL [6]: 2.4 g
KIDNEY_L [7]: 1.2 g
KIDNEY_R [7]: 1.3 g
KIDNEY_TOTAL [7]: 2.5 g
KIDNEY_L [8]: 1.4 g
KIDNEY_R [8]: 1.4 g
KIDNEY_TOTAL [8]: 2.8 g
LIVER [6]: 17.5 g
LIVER [7]: 19.2 g
LIVER [8]: 21.4 g
A/G [6]: 2
ALP [6]: 932.2 IU/L
ALT [6]: 35 IU/L
AST [6]: 59.4 IU/L
BUN [6]: 19.2 mg/dL
CRE [6]: 0.6 mg/dL
Ca [6]: 10.9 mg/dL
Cl [6]: 104 meq/L
DBIL [6]: 0.03 mg/dL
GLC [6]: 190.8 mg/dL
IP [6]: 8 mg/dL
K [6]: 4.1 meq/L
LDH [6]: 99 IU/L
Na [6]: 140 meq/L
PL [6]: 133.2 mg/dL
RALB [6]: 3.9 g/dL
TBIL [6]: 0.2 mg/dL
TC [6]: 72.8 mg/dL
TG [6]: 47 mg/dL
TP [6]: 5.9 g/dL
gamma-GTP [6]: 1.6 IU/L
A/G [7]: 1.7
ALP [7]: 877 IU/L
ALT [7]: 36 IU/L
AST [7]: 63.2 IU/L
BUN [7]: 21.4 mg/dL
CRE [7]: 0.6 mg/dL
Ca [7]: 10.6 mg/dL
Cl [7]: 104.4 meq/L
DBIL [7]: 0.038 mg/dL
GLC [7]: 195.8 mg/dL
IP [7]: 6.7 mg/dL
K [7]: 4.1 meq/L
LDH [7]: 95.8 IU/L
Na [7]: 141.4 meq/L
PL [7]: 123.2 mg/dL
RALB [7]: 3.9 g/dL
TBIL [7]: 0.2 mg/dL
TC [7]: 64.2 mg/dL
TG [7]: 48.2 mg/dL
TP [7]: 6.2 g/dL
gamma-GTP [7]: 1.6 IU/L
A/G [8]: 1.8
ALP [8]: 700.6 IU/L
ALT [8]: 39.8 IU/L
AST [8]: 63.4 IU/L
BUN [8]: 23 mg/dL
CRE [8]: 0.7 mg/dL
Ca [8]: 10.5 mg/dL
Cl [8]: 106.4 meq/L
DBIL [8]: 0.022 mg/dL
GLC [8]: 192.6 mg/dL
IP [8]: 6.4 mg/dL
K [8]: 4.1 meq/L
LDH [8]: 106.2 IU/L
Na [8]: 140.8 meq/L
PL [8]: 133 mg/dL
RALB [8]: 4 g/dL
TBIL [8]: 0.2 mg/dL
TC [8]: 72 mg/dL
TG [8]: 43.6 mg/dL
TP [8]: 6.2 g/dL
gamma-GTP [8]: 1.6 IU/L
